Read-outs that look alike come from different tables or passages of the source.
How the values were obtained:
[1] = target: P-glycoprotein (Homo sapiens (Human), UniProt P08183); assay: P-glycoprotein inhibitory activity: MTT cell growth assay in P-gp overexpressing MES-SA/DX5 cells with docetaxel or paclitaxel; assay type: cell-based; settings: 3 days, with 100 nM docetaxel or 200 nM paclitaxel, MTT readout
Experimental: P-glycoprotein inhibitory activity may be determined by an assay wherein P-glycoprotein overexpressed cell lines are treated with increasing concentrations of a compound of the present disclosure and therapeutic agent for three days, followed by an MTT assay.
Cell growth percentage may be calculated with the following equation: Cell growth percentage=(T−T0)/(C−T0)×100%, wherein T is OD of the test well exposure to Compound; C is OD of the control well without Compound treatment; and T0 is OD at time zero.
A P-glycoprotein overexpressing cell line derived from the human uterine sarcoma cell line MES-SA (i.e., MES-SA/DX5 cells (ATCC)) was seeded by stepwise exposures to increasing concentrations of doxorubicin, in a 96-well plate at 6,500 cells/100 μL media (McCoy's 5A+10% FBS) in each well. The cells were incubated overnight at 37° C. 5% CO2. Compounds were diluted in a separate 96-well plate to yield 11× of final concentration (final Compound concentrations were 0, 5, 20, 80, 320, and 1280 nM and the final docetaxel concentration was 100 nM or the final paclitaxel concentration was 200 nM). DMSO was used as a negative control and known P-glycoprotein inhibitor, encequidar methane sulfonic acid monohydrate (HM30181A), was used as a positive control. 10 μL of the 11× dilutions was added to the appropriate well, P-glycoprotein inhibition wells comprised Compound+docetaxel (or Compound+paclitaxel). The compound toxicity wells comprised 1280 nM Compound+10 μL of culture media. Treated the cells were incubated for 3 days at 37° C. 5% CO2.
To value (reflecting the starting number of cells upon Compound treatment) of 3 wells of cells was determined by performing the following steps 1-4 as described below.
1. 10 μL MTT (5 mg/mL in PBS) was added to each well and incubated for 1.5 hours at 37° C. 5% CO2.
2. Culture media was removed and 100 μL of DMSO was added to each well.
3. The plate was gently shook until all purple MTT formazan crystals were dissolved. OD540 was then measured using microplate reader.
4. Cell growth percentage was calculated with the following equation: Cell growth percentage=(T−T0)/(C−T0)×100%, wherein T is OD of the test well exposure to Compound; C is OD of the control well without Compound treatment; and T0 is OD at time zero.

[2] = target: CYP3A4 (Homo sapiens (Human), UniProt P08684); assay: CYP3A4 inhibitory activity: Luciferin-IPA (P450-Glo) assay with human liver microsome
Sequence of CYP3A4 (P08684 whole entry): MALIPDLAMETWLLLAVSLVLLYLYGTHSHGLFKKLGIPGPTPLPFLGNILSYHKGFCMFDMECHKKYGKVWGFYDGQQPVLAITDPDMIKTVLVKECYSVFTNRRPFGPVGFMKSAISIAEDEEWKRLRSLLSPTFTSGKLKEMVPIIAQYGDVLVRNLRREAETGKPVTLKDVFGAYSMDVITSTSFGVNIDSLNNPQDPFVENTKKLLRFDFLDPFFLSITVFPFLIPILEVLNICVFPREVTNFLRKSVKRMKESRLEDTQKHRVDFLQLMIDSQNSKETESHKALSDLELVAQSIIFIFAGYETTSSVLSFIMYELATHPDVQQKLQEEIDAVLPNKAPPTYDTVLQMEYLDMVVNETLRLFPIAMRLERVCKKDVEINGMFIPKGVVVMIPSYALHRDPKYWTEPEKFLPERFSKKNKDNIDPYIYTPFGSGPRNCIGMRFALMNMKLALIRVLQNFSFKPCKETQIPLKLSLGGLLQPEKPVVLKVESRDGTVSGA
Experimental: Cytochrome P450 activity may be determined by a P450-Glo™ assay (Promega) with human liver microsomes wherein the compounds of the present disclosure are dosed at different concentrations in buffer and incubated. Dose-response curve and IC50 data may be obtained and fit to a nonlinear regression model using GraphPad Prism software (v6.0).
The standard final Compound concentrations were 37, 111, 333, 1000, and 3000 nM. 12.5 μL of the Compound dilutions were transferred to a white 96-well plate. 1450 μL (enough for a whole plate) of 4× assay buffer (400 mM potassium phosphate buffer (10 mL 1M potassium phosphate buffer: 8.02 mL 1M K2HPO4+1.98 mL 1M KH2PO4 (1.4 g K2HPO4+0.27 g KH2PO4 in 10 mL H2O), 32 μM Luciferin-IPA (Promega V9002)) 580 μl of 1 M K3PO4 buffer, 870 μL H2O, 14 μL of 3 mM Luciferin-IPA, and 18 μL of human liver microsome (Sigma M0317-1VL) was made. 12.5 μL of 4× assay buffer was added to each well. For the well of blank control, 12.5 μL of 4× assay buffer without liver microsome was added. The plate was incubated at room temperature for 15 minutes. 2.75 mL NADPH buffer was made as follows: 2.42 mL H2O, 275 μL solution A and 55 μL solution B (NADPH regeneration system, Promega V9510). 25 μL of the buffer was added to each well. The plates were incubated at 37° C. for 11 minutes. 50 μL of luciferin detection reagent (Promega V9002) was added and the plates were incubated at room temperature for 5 minutes. The plate was read with a luminometer.
The dose-response curve and IC50 were obtained by fitting data to nonlinear regression model using GraphPad Prism software (v6.0).

Sequence of P-glycoprotein (P08183 whole entry): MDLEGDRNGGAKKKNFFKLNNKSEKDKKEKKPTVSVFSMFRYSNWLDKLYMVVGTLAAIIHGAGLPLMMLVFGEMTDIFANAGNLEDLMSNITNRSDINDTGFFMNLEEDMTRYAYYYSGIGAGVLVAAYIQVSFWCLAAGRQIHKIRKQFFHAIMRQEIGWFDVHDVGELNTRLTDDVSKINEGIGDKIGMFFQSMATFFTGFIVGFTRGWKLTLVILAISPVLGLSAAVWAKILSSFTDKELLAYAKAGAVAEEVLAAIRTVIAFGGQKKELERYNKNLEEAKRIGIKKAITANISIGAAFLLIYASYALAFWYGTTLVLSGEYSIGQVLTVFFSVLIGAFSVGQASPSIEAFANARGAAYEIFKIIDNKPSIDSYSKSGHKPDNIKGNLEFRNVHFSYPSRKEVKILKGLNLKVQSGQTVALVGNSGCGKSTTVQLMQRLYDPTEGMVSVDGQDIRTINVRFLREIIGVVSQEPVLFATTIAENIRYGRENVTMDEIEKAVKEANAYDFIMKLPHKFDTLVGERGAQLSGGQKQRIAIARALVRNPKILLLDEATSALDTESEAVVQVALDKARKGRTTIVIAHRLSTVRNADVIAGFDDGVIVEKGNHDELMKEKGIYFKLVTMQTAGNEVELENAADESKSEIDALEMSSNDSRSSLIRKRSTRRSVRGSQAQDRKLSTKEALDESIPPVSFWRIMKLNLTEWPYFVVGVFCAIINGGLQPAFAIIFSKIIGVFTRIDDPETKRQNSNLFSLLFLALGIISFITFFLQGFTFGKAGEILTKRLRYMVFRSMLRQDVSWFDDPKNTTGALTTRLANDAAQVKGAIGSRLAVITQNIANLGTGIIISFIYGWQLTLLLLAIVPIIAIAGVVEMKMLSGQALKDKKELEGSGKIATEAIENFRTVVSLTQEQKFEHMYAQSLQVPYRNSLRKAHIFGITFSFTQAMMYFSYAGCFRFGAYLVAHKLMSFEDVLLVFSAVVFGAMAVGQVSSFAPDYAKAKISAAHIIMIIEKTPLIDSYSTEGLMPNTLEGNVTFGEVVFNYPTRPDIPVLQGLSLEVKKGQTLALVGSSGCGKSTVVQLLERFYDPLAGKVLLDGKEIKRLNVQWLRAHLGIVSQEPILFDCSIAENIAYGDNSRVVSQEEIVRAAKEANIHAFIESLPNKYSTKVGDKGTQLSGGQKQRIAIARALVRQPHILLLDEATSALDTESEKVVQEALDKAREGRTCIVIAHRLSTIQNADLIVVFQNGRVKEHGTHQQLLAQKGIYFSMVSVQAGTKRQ

| EC50 [1] | IC50 [2] | IC50 ([2]; human, microsomes, 11 min) | Compound |
| --- | --- | --- | --- |
| > 1 µM | 0.1 to 0.25 µM |  | COc1cc(NC(=O)c2cc(=O)c3ccccc3o2)c(-c2nnn(-c3ccc(CCN4CCc5cc(-n6ccnc6)ccc5C4)cc3)n2)cc1OC [Compound 8, N-(2-(2-(4-(2-(6-(1H-Imidazol-1-yl)-3,4-dihydroisoquinolin-2(1H)-yl)ethyl)phenyl)-2H-tetrazol-5-yl)-4,5-dimethoxyphenyl)-4-oxo-4H-chromene-2-carboxamide] |
| > 1 µM |  | > 1 µM | COc1cc2c(cc1OC)CN(CCc1ccc(-n3nnc(-c4cc(OC)c(OC)cc4NC(=O)c4cc(=O)c5cc(-n6ccnc6)ccc5o4)n3)cc1)CC2 [Compound 20, N-(2-(2-(4-(2-(6,7-Dimethoxy-3,4-dihydroisoquinolin-2(1H)-yl)ethyl)phenyl)-2H-tetrazol-5-yl)-4,5-dimethoxyphenyl)-6-(1H-imidazol-1-yl)-4-oxo-4H-chromene-2-carboxamide] |
| 0.5 to 1 µM | 0.5 to 1 µM |  | COc1cc(NC(=O)c2cnc3ccccc3c2)c(-c2nnn(-c3ccc(CCN(Cc4cccc(-n5ccnc5)c4)Cc4ccc5c(cnn5C)c4)cc3)n2)cc1OC [Compound 4, N-(2-(2-(4-(2-((3-(1H-Imidazol-1-yl)benzyl)((1-methyl-1H-indazol-5-yl)methyl)amino)ethyl)phenyl)-2H-tetrazol-5-yl)-4,5-dimethoxyphenyl)quinoline-3-carboxamide] |
| < 0.1 µM |  | > 1 µM | COc1cc(NC(=O)c2cc(=O)c3ccccc3o2)c(-c2nnn(-c3ccc(CCN4CCc5cnccc5C4)cc3)n2)cc1OCc1ccccc1 [Compound 12, N-(4-(Benzyloxy)-2-(2-(4-(2-(3,4-dihydro-2,6-naphthyridin-2(1H)-yl)ethyl)phenyl)-2H-tetrazol-5-yl)-5-methoxyphenyl)-4-oxo-4H-chromene-2-carboxamide] |
| > 1 µM |  | > 1 µM | COc1cc(NC(=O)c2cc(=O)c3ccc(C)cc3o2)c(-c2nnn(-c3ccc(CCN(Cc4cccc(-n5ccnc5)c4)Cc4ccc5c(cnn5C)c4)cc3)n2)cc1OC [Compound 5, N-(2-(2-(4-(2-((3-(1H-Imidazol-1-yl)benzyl)((1-methyl-1H-indazol-5-yl)methyl)amino)ethyl)phenyl)-2H-tetrazol-5-yl)-4,5-dimethoxyphenyl)-7-methyl-4-oxo-4H-chromene-2-carboxamide] |
| < 0.1 µM |  | > 1 µM | COc1cc2c(cc1OC)CN(CCc1ccc(-n3nnc(-c4cc(OCc5ccccc5)c(OC)cc4NC(=O)c4cc(=O)c5ccccc5o4)n3)cc1)CC2 [Compound 29, N-(4-(Benzyloxy)-2-(2-(4-(2-(6,7-dimethoxy-3,4-dihydroisoquinolin-2(1H)-yl)ethyl)phenyl)-2H-tetrazol-5-yl)-5-methoxyphenyl)-4-oxo-4H-chromene-2-carboxamide] |
|  |  | 0.5 to 1 µM | COc1cc(NC(=O)c2cnc3ccccc3c2)c(-c2nnn(-c3ccc(CCN4CCc5cnccc5C4)cc3)n2)cc1OCc1ccccc1 [Compound 17, N-(4-(Benzyloxy)-2-(2-(4-(2-(3,4-dihydro-2,6-naphthyridin-2(1H)-yl)ethyl)phenyl)-2H-tetrazol-5-yl)-5-methoxyphenyl)quinoline-3-carboxamide] |
| > 1 µM |  |  | COc1cc(NC(=O)c2cc(=O)c3ccccc3o2)c(-c2nnn(-c3ccc(CCN4CCc5cc(OC)c(OCCn6ccnc6)cc5C4)cc3)n2)cc1OC [Compound 14, N-(2-(2-(4-(2-(7-(2-(1H-Imidazol-1-yl)ethoxy)-6-methoxy-3,4-dihydroisoquinolin-2(1H)-yl)ethyl)phenyl)-2H-tetrazol-5-yl)-4,5-dimethoxyphenyl)-4-oxo-4H-chromene-2-carboxamide] |
| < 0.1 µM |  |  | COc1cc2c(cc1OC)CN(CCc1ccc(NC(=O)c3cc(OC)c(OC)cc3NC(=O)c3cnc4ccccc4c3)cc1)CC2 [Tariquidar, reference compound] |
